Assay results taken from patent publication US5416087A, “Bis-benzo, cyclohepta piperidylidene, piperidine and piperazine compounds, compositions and methods of use” (priority 1993, dated 1995).

Legend:
[1] = tested on: PAF-induced platelet aggregation; assay: Platelet aggregation assay (PAF-induced aggregation of human platelet-rich plasma); type: cell-based; conditions: 2 min, human PRP, PAF 1-5×10^-8 M, 37° C., 2 min. incubation, read-out: PAF Antagonism (in vitro) IC50
Description: Platelet-activating factor (PAF) causes aggregation of platelets by a receptor-mediated mechanism. Therefore, PAF-induced platelet aggregation provides a simple and convenient assay to screen compounds for PAF antagonism.
Blood was centrifuged at 110×g for 15 min. and the supernatant platelet-rich plasma (PRP) carefully transferred into a polypropylene tube. Platelet-poor-plasma (PPP) was prepared by centrifuging PRP at 12,000×g for 2 min. (Beckman Microfuge B). PRP was used within 3 hr. of drawing the blood.
PAF was dissolved in chloroform:methanol (1:1, v/v) at a concentration of 2 mg/ml and stored at -70° C. An aliquot of this solution was transferred to a polypropylene tube and dried under a flow of nitrogen gas. […] This stock solution was further diluted to appropriate concentrations in Hepes-saline-BSA buffer. Collagen (Sigma) and adenosine diphosphate (ADP) (Sigma) were purchased as solutions. Test compounds were initially dissolved in dimethyl sulfoxide (DMSO) at a concentration of 50 mM and then further diluted in Hepes-saline-BSA buffer to achieve appropriate concentrations.
When an aggregating agent such as PAF is added to PRP, platelets aggregate. An aggregometer quantifies this aggregation by measuring and comparing light (infra-red) transmission through PPP and PRP. […]

[2] = tested on: PAF (agonist bronchospasm); assay: PAF-induced bronchospasm in guinea pigs; type: in vivo, Male Hartley guinea pigs; conditions: dose 10 mg/kg oral, PAF 0.4 μg/kg i.v.
Description: (§1) Male Hartley guinea pigs (450-550 g) were obtained from Charles River Breeding Laboratories. The animals were fasted overnight and the following day were anesthetized with 0.9 ml/kg i.p. of dialurethane (containing 0.1 g/ml diallylbarbituric acid, 0.4 g/ml ethylurea and 0.4 g/ml urethane). The left jugular vein was cannulated for the administration of compounds. The trachea was cannulated and the animals were ventilated by a rodent respirator at 55 strokes/min. with a stroke volume of 4 ml. A side arm to the tracheal cannula was connected to a pressure transducer to obtain a continuous measure of inflation pressure. Bronchoconstriction was measured as the percent increase in inflation pressure that peaked within 5 min. after challenge with spasmogen. […] Each animal was challenged with only a single spasmogen. The effect of a compound on the bronchospasm is expressed as a percent inhibition of the increase in inflation pressure compared to the increase in a control group.

[3] = tested on: Histamine (agonist bronchospasm); assay: Histamine-induced bronchospasm in guinea pigs; type: in vivo, Male Hartley guinea pigs; conditions: dose 1 mg/kg oral, histamine 10 ug/kg i.v.
Description: as §1

Compound	IC50 [1]	PAF Agonist Bronchospasm (in vivo) - oral, % Inhibition [2]	Histamine Agonist Bronchospasm (in vivo) - oral, % Inhibition [3]
O=C(c1cc[n+]([O-])cc1)N1CCN(C2c3ccccc3-c3ccccc32)CC1 [Example 8]	2500 nM	–	–
CCOC(=O)N1CCC(=C2c3ccc(Cl)cc3CCc3cccnc32)CC1 [Compound 1]	–	< 50%	> 50%
